# From US11596145B2, “Anti-freezing agent for protecting biological tissue during freezing treatment and preparation method therefor” (TAIPEI VETERANS GENERAL HOSPITAL, priority 2016, dated 2023)
# Columns and labels:
# [1] = tested on: human cartilage tissue; experiment: Change of cartilage color index (luminance level of cartilage surface) after freezing; conditions: applied to articular cartilage; liquid nitrogen 20 minutes, warmed to room temperature 20 minutes
# Description: Unneeded normal cartilage tissues (residual specimens) taken from the human body during surgery were divided into three groups and treated separately: control group A was not treated; for control group B, traditional commercially available anti-freezing agent was applied to articular cartilage; and for experimental group C, the anti-freezing agent of the present invention was applied to the articular cartilage. The control and experimental groups were separately placed in liquid nitrogen to freeze for 20 minutes, and then slowly warmed to room temperature for 20 minutes. The color index change of the cartilage surface was observed by analyzing the decrease of luminance level of the cartilage surface.
# [2] = tested on: human cartilage tissue; experiment: Protection of human cartilage tissue during liquid nitrogen freezing (HE stain, separation of cartilage from hard bone); conditions: applied to articular cartilage, liquid nitrogen 20 minutes, warmed to room temperature 20 minutes
# Description: Unneeded normal cartilage tissues (residual specimens) taken from the human body during surgery were divided into three groups and treated separately: control group A was not treated; for control group B, traditional commercially available anti-freezing agent was applied to articular cartilage; and for experimental group C, the anti-freezing agent of the present invention was applied to the articular cartilage. The control and experimental groups were separately placed in liquid nitrogen to freeze for 20 minutes, slowly warmed to room temperature for 20 minutes, fixed with 4% paraformaldehyde, pathologically sectioned, and then stained by hematoxylin-eosin. […] The size of separation was 2.16 mm in the control group A, 1.2 mm in the control group B, and 0.45 mm in the experimental group. It was shown that the anti-freezing agent of the present invention can protect cartilage tissue and reduce the separation of cartilage and hard bone caused by freezing.
# [3] = tested on: rat knee cartilage; experiment: Protective effect on rat knee cartilage during liquid nitrogen freezing (HE stain of pathological sections); conditions: coated at articular cartilage; liquid nitrogen 20 minutes, warmed to room temperature 20 minutes
# Method: The rat knee cartilage was taken out. The control group A was not treated, and the control group B was coated with a conventional commercially available anti-freezing agent (dimethyl sulfoxide) at the articular cartilage. The experimental groups were coated with the anti-freezing agent of the present invention at the articular cartilage, separately placed in liquid nitrogen for 20 minutes, slowly warmed to room temperature for 20 minutes, fixed with 4% paraformaldehyde, pathologically sectioned, and then stained with hematoxylin-eosin (HE stain). The pathological sections of hematoxylin-eosin stained control group (A), control group (B), and experimental group (C). are shown in FIG. 2. After freezing, in the control group A the cartilage surface became brittle and uneven (as indicated by the arrow), and the control group B was also uneven (as indicated by the arrow).
smiles,measurement,setting,value
C[S+](C)[O-] [dimethyl sulfoxide],decrease of luminance level of the cartilage surface after freezing,[1],significantly decreased
same,separation at the intersection of the cartilage bottom and the hard bone after freezing,[2]; HE stain,separation (the stellate) also occurred
same,size of separation,[2]; untreated control 2.16 mm,1.2 mm
same,cartilage surface after freezing (hematoxylin-eosin stained section),[3],uneven
